Source: PubChem BioAssay (NCI)
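Where inhibition never reached the appropriate level, the endpoint shown equals the highest concentration tested. Otherwise, values were interpolated linearly from a five-concentration, 48-hour dose response in 96-well plates. At the GI50, growth is halved. At the TGI there is no net growth.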

Columns and labels:
Experiment in all cases: NCI anticancer screen, dose series, 48 h
[1] = tested on: NCI-H522 lung
[2] = tested on: SR leukemia
[3] = tested on: HCT-116 colon
[4] = tested on: OVCAR-4 ovarian
[5] = tested on: NCI-H226 lung
[6] = tested on: DU-145 prostate
[7] = tested on: NCI-H23 lung
[8] = tested on: SN12C renal
[9] = tested on: HOP-62 NSCLC
[10] = tested on: SK-OV-3 ovarian
[11] = tested on: MCF7 breast
[12] = tested on: PC-3 prostate
[13] = tested on: RXF 393 renal
[14] = tested on: KM12 colon
[15] = tested on: T-47D breast
[16] = tested on: MDA-MB-231 breast
[17] = tested on: SK-MEL-2 melanoma
[18] = tested on: NCI/ADR-RES ovarian
[19] = tested on: OVCAR-8 ovarian
[20] = tested on: BT-549 breast
[21] = tested on: 786-0 renal
[22] = tested on: HS 578T breast
[23] = tested on: CAKI-1 renal
[24] = tested on: ACHN renal
[25] = tested on: NCI-H460 lung
[26] = tested on: SF-268 CNS
[27] = tested on: LOX IMVI melanoma
[28] = tested on: MOLT-4 leukemia
[29] = tested on: MDA-MB-435
[30] = tested on: U251 CNS
[31] = tested on: M14 melanoma
[32] = tested on: EKVX NSCLC
[33] = tested on: SNB-19 CNS
[34] = tested on: RPMI-8226 leukemia
[35] = tested on: SK-MEL-28 melanoma
[36] = tested on: COLO 205 colon
[37] = tested on: SF-539 CNS
[38] = tested on: UACC-257 melanoma
[39] = tested on: K-562 leukemia
[40] = tested on: HCC-2998 colon
[41] = tested on: HT29 colon
[42] = tested on: SNB-75 CNS
[43] = tested on: HL-60(TB) leukemia
[44] = tested on: SK-MEL-5 melanoma
[45] = tested on: TK-10 renal
[46] = tested on: SF-295 CNS
[47] = tested on: HOP-92 NSCLC
[48] = tested on: OVCAR-5 ovarian
[49] = tested on: CCRF-CEM leukemia
[50] = tested on: A498 renal
[51] = tested on: UO-31 renal
[52] = tested on: A549 NSCLC
[53] = tested on: SW-620 colon
[54] = tested on: HCT-15 colon
[55] = tested on: UACC-62 melanoma
[56] = tested on: MALME-3M melanoma
[57] = tested on: OVCAR-3 ovarian

With `COc1cc(S(=O)(=O)Nc2nc(-c3ccc(N4C(=O)C(C)SC4c4ccccc4O)cc3)cs2)ccc1Cl` (centres undefined) the GI50 [1] was 53.7 µM, the TGI [1] was greater than 100 µM and the GI50 [2] was 43.3 µM. The TGI [2] was greater than 100 µM, the GI50 [3] was 28.6 µM and the TGI [3] was greater than 100 µM. It also gave a GI50 [4] of 26.4 µM, a TGI [4] greater than 100 µM and a GI50 [5] of 20.3 µM. For the same compound, the TGI [5] was greater than 100 µM, the GI50 [6] was 42.5 µM and the TGI [6] was greater than 100 µM. The GI50 [7] was 42.2 µM, the TGI [7] was greater than 100 µM and the GI50 [8] was 47.4 µM. For the same compound, the TGI [8] was greater than 100 µM, the GI50 [9] was 59.4 µM and the TGI [9] was greater than 100 µM. The GI50 [10] was 50.6 µM, the TGI [10] was greater than 100 µM and the GI50 [11] was 49 µM. For the same compound, the TGI [11] was greater than 100 µM, the GI50 [12] was 30.1 µM and the TGI [12] was greater than 100 µM. It also gave a GI50 [13] greater than 100 µM, a TGI [13] greater than 100 µM and a GI50 [14] of 51.1 µM. It also gave a TGI [14] greater than 100 µM, a GI50 [15] of 28.8 µM and a TGI [15] greater than 100 µM. The GI50 [16] was 32.6 µM, the TGI [16] was greater than 100 µM and the GI50 [17] was 38.7 µM. The TGI [17] was greater than 100 µM, the GI50 [18] was 50.9 µM and the TGI [18] was greater than 100 µM. It also gave a GI50 [19] of 42.2 µM, a TGI [19] greater than 100 µM and a GI50 [20] of 32 µM. The TGI [20] was greater than 100 µM, the GI50 [21] was 64.9 µM and the TGI [21] was greater than 100 µM. For the same compound, the GI50 [22] was 43.1 µM, the TGI [22] was greater than 100 µM and the GI50 [23] was 67.7 µM. For the same compound, the TGI [23] was greater than 100 µM, the GI50 [24] was 42.7 µM and the TGI [24] was greater than 100 µM. For the same compound, the GI50 [25] was 42.5 µM, the TGI [25] was greater than 100 µM and the GI50 [26] was 41.4 µM. It also gave a TGI [26] greater than 100 µM, a GI50 [27] of 52.1 µM and a TGI [27] greater than 100 µM. It also gave a GI50 [28] of 34.4 µM, a TGI [28] greater than 100 µM and a GI50 [29] of 43.6 µM. The TGI [29] was greater than 100 µM, the GI50 [30] was 32.8 µM and the TGI [30] was greater than 100 µM. For the same compound, the GI50 [31] was 38.6 µM, the TGI [31] was greater than 100 µM and the GI50 [32] was 42.8 µM. The TGI [32] was greater than 100 µM, the GI50 [33] was 43.3 µM and the TGI [33] was greater than 100 µM. It also gave a GI50 [34] of 17.4 µM, a TGI [34] greater than 100 µM and a GI50 [35] of 39.5 µM. The TGI [35] was greater than 100 µM, the GI50 [36] was 40.6 µM and the TGI [36] was greater than 100 µM. The GI50 [37] was 32.6 µM, the TGI [37] was greater than 100 µM and the GI50 [38] was 32.8 µM. The TGI [38] was greater than 100 µM, the GI50 [39] was 33.4 µM and the TGI [39] was greater than 100 µM. The GI50 [40] was 50.3 µM, the TGI [40] was greater than 100 µM and the GI50 [41] was 56.5 µM. The TGI [41] was greater than 100 µM, the GI50 [42] was 42.4 µM and the TGI [42] was greater than 100 µM. The GI50 [43] was 38 µM, the TGI [43] was greater than 100 µM and the GI50 [44] was 26 µM. It also gave a TGI [44] greater than 100 µM, a GI50 [45] of 97.6 µM and a TGI [45] greater than 100 µM. For the same compound, the GI50 [46] was 31.8 µM, the TGI [46] was greater than 100 µM and the GI50 [47] was 28 µM. The TGI [47] was greater than 100 µM, the GI50 [48] was 49.5 µM and the TGI [48] was greater than 100 µM. The GI50 [49] was 5.55 µM, the TGI [49] was greater than 100 µM and the GI50 [50] was 51.3 µM. The TGI [50] was greater than 100 µM, the GI50 [51] was 37.2 µM and the TGI [51] was greater than 100 µM. It also gave a GI50 [52] of 39.7 µM, a TGI [52] greater than 100 µM and a GI50 [53] of 62 µM. For the same compound, the TGI [53] was greater than 100 µM, the GI50 [54] was 37.3 µM and the TGI [54] was greater than 100 µM. For the same compound, the GI50 [55] was 39.9 µM, the TGI [55] was greater than 100 µM and the GI50 [56] was 89.2 µM. It also gave a TGI [56] greater than 100 µM, a GI50 [57] of 35.6 µM and a TGI [57] greater than 100 µM.
